Assay results as given in PubChem BioAssay AID687005 (Broad Institute, 2013).
Inconclusive results are not listed. Active and inactive are the calls of the source.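 The calls were made as follows: active = Compounds that reduce signal, with fitted half-maximal dose at or under twice the top valid tested dose; inconclusive = Poor fit, or flat curve losing 30 to 70% of signal; inactive = Potency past limit, flat within 30%, or opposite direction.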

Assay: viability loss in HEK293T cells – cell-based, ATP luminescence, cherry-pick samples, cytotoxicity control, dose response (AID 687005)
Conditions: HEK293T viability, ATP luminescence (CellTiter-Glo), 48 h

| Compound | activity change, negative = cytotoxicity (at 26 µM (top of the series)) | other results |
| --- | --- | --- |
| CNC(=O)C[C@H]1CC[C@H]2[C@H](COc3ccc(NC(=O)c4cc(C)on4)cc3C(=O)N2C)O1 |  | activity change, negative = cytotoxicity (at 23.5 µM (top of the series)): -23.4% (inactive) |
| CN1C(=O)N[C@@H]2c3ccccc3O[C@@]1(C)[C@@H]2COC(=O)c1ccccc1 | -8.64% (inactive) |  |
| Cc1cccc(NC(=O)C2NC(=O)CC2c2ccccc2)c1C (stereo not given) | 8.03% (inactive) |  |
| O=C(NC[C@@H]1[C@@H](c2ccccc2)[C@H](CO)N1C(=O)C1CCC1)NC1CCCC1 |  | activity change, negative = cytotoxicity (at 23.5 µM (top of the series)): -9.04% (inactive) |
| CC(C)NC(=O)Nc1ccc2c(c1)C(=O)N([C@@H](C)CO)C[C@@H](C)[C@@H](CN(C)C(=O)c1ccncc1)OCCCC[C@@H](C)O2 | -15.2% (inactive) |  |
| C[C@@H]1CCCCO[C@@H](CN(C)C(=O)CCCN(C)C)[C@@H](C)CN([C@H](C)CO)C(=O)c2cc(NC(=O)Cc3ccccc3)ccc2O1 | 13.4% (inactive) |  |
| O=C(C[C@H]1CC[C@H]2[C@@H](COC[C@@H](O)CN2C(=O)c2ccc(F)cc2)O1)N1CCOCC1 | -14.1% (inactive) |  |
| CCCN(C)C[C@H]1OCCCC[C@@H](C)Oc2ccc(NC(=O)NC(C)C)cc2C(=O)N([C@@H](C)CO)C[C@H]1C | -9.71% (inactive) |  |
| C[C@@H]1CN([C@@H](C)CO)C(=O)c2cccc(N(C)C)c2O[C@H]1CN(C)C(=O)Nc1ccc(C(F)(F)F)cc1 | -5.69% (inactive) |  |
| C[C@@H]1CN([C@@H](C)CO)C(=O)c2cccc(NS(C)(=O)=O)c2O[C@@H]1CN(C)C(=O)Nc1ccc2c(c1)OCO2 | -20.4% (inactive) |  |
| COc1ccc(CN(C)C[C@@H]2Oc3ccc(NC(=O)C4CC4)cc3C(=O)N([C@@H](C)CO)C[C@H]2C)cc1 |  | activity change, negative = cytotoxicity (at 23.5 µM (top of the series)): 8.64% (inactive) |
| Cc1cccc(C)c1NC(=O)C1(C)CCC(=O)N1CCCn1ccnc1 (stereo not given) | -14.5% (inactive) |  |
| O=C(C[C@@H]1CC[C@H](NC(=O)Cc2ccccn2)[C@H](CO)O1)NCCc1ccccc1 | -2.62% (inactive) |  |
| CO[C@H]1CN(C)C(=O)c2cc(NC(=O)c3ccccc3F)ccc2OC[C@H](C)N(CC2CCOCC2)C[C@H]1C | 57% (inactive) |  |
| CO[C@H]1CC[C@@H]2CCOc3c(C#N)cccc3C(=O)N(C)C[C@@H](OC)[C@@H](C)C(=O)N(C)C[C@@H]1O2 | -16.3% (inactive) |  |
| Cc1ccc(S(=O)(=O)N[C@H]2CC[C@H](CC(=O)NCc3ccccc3F)O[C@H]2CO)cc1 | 8.09% (inactive) |  |
| COCC(=O)Nc1ccc2c(c1)C(=O)N(C)C[C@@H](OC)[C@H](C)CN(Cc1ccccc1)[C@@H](C)CO2 | 7.91% (inactive) |  |
| O=C(CSc1ncnc2c1cnn2-c1ccccc1)Nc1ccc2c(c1)OCO2 | 2.1% (inactive) |  |
| CO[C@@H]1CN(C)C(=O)c2ccc(NC(=O)C3CC3)cc2OC[C@H](C)N(C(=O)c2ccncc2)C[C@H]1C | -27.7% (inactive) |  |
| CNC(=O)C[C@H]1CC[C@H]2[C@@H](COc3ccc(NC(=O)Nc4ccccc4)cc3C(=O)N2C)O1 | 7.97% (inactive) |  |
| C[C@@H]1CN([C@H](C)CO)C(=O)c2cc(NC(=O)Nc3cccc4ccccc34)ccc2O[C@@H](C)CCCCO[C@@H]1CN(C)Cc1ccc2c(c1)OCO2 | -13.2% (inactive) |  |
| Cc1ccc(C)c(NC(=O)C2(C)CCCN2C(=O)C(C)C)c1 (stereo not given) |  | activity change, negative = cytotoxicity (at 42 µM (top of the series)): -23.6% (inactive) |

| Compound | activity change, negative = cytotoxicity (at 26 µM (top of the series)) | other results |
| --- | --- | --- |
| Cc1ccc(N(CC(N)=O)S(=O)(=O)c2ccc(F)cc2)cc1 |  | activity change, negative = cytotoxicity (at 28.5 µM (top of the series)): -28% (inactive) |
| CNC[C@@H]1OCCCC[C@H](C)Oc2ccc(NC(=O)Nc3ccc(F)cc3)cc2C(=O)N([C@@H](C)CO)C[C@H]1C | 28.7% (inactive) |  |
| CC(C)NC(=O)Nc1cccc2c1O[C@@H](CN(C)C(=O)Nc1ccccc1)[C@@H](C)CN([C@@H](C)CO)C2=O | -13.9% (inactive) |  |
| Cc1noc(C)c1NC(=O)Nc1ccc2c(c1)C(=O)N(C)[C@H]1CC[C@H](CC(=O)N[C@H]3CCN(Cc4ccccc4)C3)O[C@H]1CO2 |  | activity change, negative = cytotoxicity (at 23.5 µM (top of the series)): -3.29% (inactive) |
| N#C[C@@H]1[C@@H](c2ccccc2)[C@@H](CO)N1C(=O)Cc1ccccc1 | -0.39% (inactive) |  |
| COc1ccccc1-c1cnc2c(c1)C(=O)N([C@H](C)CO)C[C@@H](C)[C@H](CN(C)Cc1cncnc1)O2 | 28.4% (inactive) |  |
| COc1ccccc1NC(=O)N[C@@H]1CC[C@@H](CCn2cc(C3(O)CCCC3)nn2)O[C@H]1CO | 9.21% (inactive) |  |
| COc1ccc(S(=O)(=O)Nc2ccc3c(c2)C(=O)N([C@H](C)CO)C[C@H](C)[C@H](CN(C)C(=O)Nc2ccccc2)O3)cc1 | -2.82% (inactive) |  |
| COc1cccc(S(=O)(=O)Nc2ccc3c(c2)[C@H]2C[C@@H](CC(=O)NC4CCCCC4)O[C@@H](CO)[C@H]2O3)c1 |  | activity change, negative = cytotoxicity (at 23.5 µM (top of the series)): -20.2% (inactive) |
| O=C1CCC(C(=O)Nc2ccc([N+](=O)[O-])cc2)N1 (stereo not given) | -9.02% (inactive) |  |
| O=C(Cc1ccccc1)N[C@H]1C=C[C@@H](CC(=O)N2CCOCC2)O[C@@H]1CO | -14.2% (inactive) |  |
| O=C(c1cc(Br)ccc1Cl)N1CCN(c2ccccn2)CC1 | -6.43% (inactive) |  |
| COc1ccc(CN(C)C[C@@H]2Oc3ccc(NS(C)(=O)=O)cc3CC(=O)N([C@H](C)CO)C[C@H]2C)cc1 |  | activity change, negative = cytotoxicity (at 23.5 µM (top of the series)): 1.11% (inactive) |
| O=C(C[C@@H]1CC[C@@H]2[C@H](COC[C@H](O)CN2Cc2cccc(C(F)(F)F)c2)O1)NCc1ccc(Cl)cc1 | 9.32% (inactive) |  |
| COc1ccccc1NC(=O)N[C@@H]1CC[C@H](CCn2cc(-c3ccccc3OC)nn2)O[C@H]1CO | -11.8% (inactive) |  |
| O=C(N[C@H]1CC[C@H](CCn2cc(-c3ccccn3)nn2)O[C@H]1CO)c1ccc(F)cc1 | -9.35% (inactive) |  |
| CC(=O)N1[C@H](CO)[C@H](c2ccc(-c3ccccc3)cc2)[C@H]1CNC(=O)C1CC1 | -33.3% (inactive) |  |
| CCS(=O)(=O)N1CCCCN2[C@H](CO)[C@@H](c3ccc(-c4ccc(C#N)cc4)cc3)[C@@H]2C1 | 2.55% (inactive) |  |
| O=C(c1ccco1)N1N=C(c2cccs2)CC1c1cc([N+](=O)[O-])ccc1O (stereo not given) | 37.4% (inactive) |  |
| C[C@H]1CN([C@@H](C)CO)C(=O)c2cc(NC(=O)Nc3ccc(F)cc3)ccc2O[C@@H]1CN(C)S(C)(=O)=O |  | activity change, negative = cytotoxicity (at 23.5 µM (top of the series)): 2.53% (inactive) |
| C[C@H](CO)N1C[C@H](C)[C@@H](CN(C)Cc2ccc(Oc3ccccc3)cc2)Oc2ccc(NS(=O)(=O)c3cn(C)cn3)cc2CC1=O | -30.9% (inactive) |  |
| C/C=C/c1cnc2c(c1)C(=O)N([C@H](C)CO)C[C@@H](C)[C@@H](CN(C)C(=O)C1CCCCC1)O2 | 38.1% (inactive) |  |

| Compound | activity change, negative = cytotoxicity (at 26 µM (top of the series)) | other results |
| --- | --- | --- |
| CCC(=O)N(C)C[C@@H]1Oc2cc(C#CC(C)(C)O)ccc2S(=O)(=O)N([C@@H](C)CO)C[C@H]1C | -26.1% (inactive) |  |
| COC(=O)C1=C(C)N(Cc2ccc(F)cc2)C(=S)NC1c1ccccc1 (stereo not given) |  | activity change, negative = cytotoxicity (at 28.5 µM (top of the series)): 17.5% (inactive) |
| Cc1cc(C(=O)NC(=S)Nc2ccccc2N2CCOCC2)ccc1[N+](=O)[O-] | -23.2% (inactive) |  |
| Cc1ccc(OCCn2c(=S)[nH]c3ccccc32)c(C(C)C)c1 | -49.7% (inactive) |  |
| COc1ccc(NC(=O)CSc2ncnc3c2cnn3CCc2ccccc2)cc1 | -33.3% (inactive) |  |
| COCCNC(=O)C[C@H]1C=C[C@H](NS(=O)(=O)c2ccc(C)cc2)[C@@H](CO)O1 | -8.29% (inactive) |  |
| COc1cc(C(=O)Oc2ccccc2N)cc(OC)c1OC | 1.38% (inactive) |  |
| COc1ccccc1CNC(=O)C[C@@H]1CC[C@@H]2[C@H](COC[C@@H](O)CN2Cc2ccccc2)O1 | -10.7% (inactive) |  |
| O=C(C[C@@H]1CC[C@H](NC(=O)Cc2ccccn2)[C@@H](CO)O1)NCCc1ccccc1 | -8.35% (inactive) |  |
| O=C(C[C@@H]1C[C@@H]2c3cc(NC(=O)Nc4ccc(F)cc4)ccc3O[C@@H]2[C@@H](CO)O1)NCC1CC1 |  | activity change, negative = cytotoxicity (at 23.5 µM (top of the series)): 26.7% (inactive) |
| N#Cc1ccc(-c2ccc3c(c2)[C@@H]2[C@@H](CCN2C(=O)Cc2ccccc2)[C@@H](CO)N3)cc1 |  | activity change, negative = cytotoxicity (at 23.5 µM (top of the series)): -19.6% (inactive) |
| C[C@H](CO)N1C[C@H](C)[C@H](CN(C)CC2CCCCC2)Oc2c(NS(C)(=O)=O)cccc2C1=O | 32.2% (inactive) |  |
| C/C=C/c1ccc([C@@H]2[C@@H](CNC(=O)c3ccccc3)N(C(C)=O)[C@H]2CO)cc1 | 13.1% (inactive) |  |
| COc1ccccc1-c1ccc([C@H]2[C@@H](C#N)N(C(=O)C3CC3)[C@@H]2CO)cc1 |  | activity change, negative = cytotoxicity (at 23.5 µM (top of the series)): 27.7% (inactive) |
| CCN(Cc1ccccc1)C(=O)COc1ccccc1 | -2.56% (inactive) |  |
| COC(=O)C1=C(C)N(Cc2ccc(Cl)cc2)C(=S)NC1c1ccc(Br)cc1 (stereo not given) |  | activity change, negative = cytotoxicity (at 23.5 µM (top of the series)): -20.4% (inactive) |
| O=C(Nc1cccc(F)c1)N[C@H]1CC[C@@H](CCNS(=O)(=O)c2cccc(Cl)c2)O[C@@H]1CO | -36.3% (inactive) |  |
| C[C@@H]1CCCCO[C@H](CN(C)C(=O)c2ccncc2)[C@H](C)CN([C@H](C)CO)C(=O)c2cc(NC(=O)CCC(F)(F)F)ccc2O1 | -23.2% (inactive) |  |
| CC(=O)N1[C@@H]2c3ccc(-c4ccccc4)c(=O)n3C[C@H]1[C@H](CO)[C@H]2C(=O)Nc1ccccc1 | 17.2% (inactive) |  |
| C[C@H]1CN([C@@H](C)CO)C(=O)Cc2cc(NS(C)(=O)=O)ccc2O[C@@H]1CN(C)Cc1ccc(Cl)c(Cl)c1 | 11.7% (inactive) |  |
| COc1ccc(NC(=O)Nc2ccc3c(c2)C(=O)N([C@H](C)CO)C[C@@H](C)[C@@H](CN(C)C(=O)CCC(F)(F)F)OCCCC[C@H](C)O3)cc1 | -34.4% (inactive) |  |
